Results reported in US8377935B2, “Substituted aminopropenyl piperidine or morpholine derivatives as novel inhibitors of histone deacetylase” (Janssen Pharmaceutica N.V., priority 2005, dated 2013).
Read-outs that look alike come from different tables or passages of the source.

Legend:
[1] = biological target: histone deacetylase (HeLa nuclear extracts); test: In vitro assay for inhibition of histone deacetylase (HDAC Fluorescent Activity Assay, Fluor de Lys); type: biochemical; conditions: HeLa nuclear extracts 60 μg/ml, 75 μM Fluor de Lys substrate
Text: The in vitro assay for inhibition of histone deacetylase (see example C.1) measures the inhibition of HDAC enzymatic activity obtained with the compounds of formula (I).
The HDAC Fluorescent Activity Assay/Drug Discovery Kit of Biomol (cat.No: AK-500-0001) was used. The HDAC Fluorescent Activity Assay is based on the Fluor de Lys (Fluorogenic Histone deAcetylase Lysyl) substrate and developer combination. The Fluor de Lys substrate, comprises an acetylated lysine side chain. Deacetylation of the substrate sensitizes the substrate so that, in the second step, treatment with the Fluor de Lys developer produces a fluorophore.
HeLa nuclear extracts (supplier: Biomol) were incubated at 60 μg/ml with 75 μM of substrate. The Fluor de Lys substrate was added in a buffer containing 25 mM Tris, 137 mM. NaCl, 2.7 mM KCl and 1 mM MgCl2.6H2O at pH 7.4. After 30 min, 1 volume of the developer was added. The fluorophore was excited with 355 nm light and the emitted light (450 nm) was be detected on a fluorometric plate reader.
For each experiment, controls (containing HeLa nuclear extract and buffer), a blank incubation (containing buffer but no HeLa nuclear extract) and samples (containing compound dissolved in DMSO and further diluted in buffer and HeLa nuclear extract) were run in parallel. In first instance, compounds were tested at a concentration of 10^−5M. […] All sample were tested 4 times. In each test the blank value was substracted from both the control and the sample values. The control sample represented 100% of substrate deactylation. For each sample the fluorescence was expressed as a percentage of the mean value of the controls. […] Herein the effects of test compounds are expressed as pIC50 (the negative log value of the IC50-value) (see Table F-3).

[2] = test system: A2780 ovarian carcinoma cells; test: Determination of antiproliferative activity on A2780 cells (MTT); type: cell-based; conditions: Homo sapiens, 96 h, four days of incubation, read-out: Cellular activity pIC50 (converted)
Experimental: Cellular activity of the compounds of formula (I) was determined on A2780 tumour cells using a colorimetric assay for cell toxicity or survival (Mosmann Tim, Journal of Immunological Methods 65:55-63, 1983)(see example C.2).
All compounds tested were dissolved in DMSO and further dilutions were made in culture medium. Final DMSO concentrations never exceeded 0.1% (v/v) in cell proliferation assays. Controls contained A2780 cells and DMSO without compound and blanks contained DMSO but no cells. MTT was dissolved at 5 mg/ml in PBS. A glycine buffer comprised of 0.1 M glycine and 0.1 M NaCl buffered to pH 10.5 with NaOH (1 N) was prepared (all reagents were from Merck).
The human A2780 ovarian carcinoma cells (a kind gift from Dr. T. C. Hamilton [Fox Chase Cancer Centre, Pennsylvania, USA]) were cultured in RPMI 1640 medium supplemented with 2 mM L-glutamine, 50 μg/ml gentamicin and 10% fetal calf serum. Cells were routinely kept as monolayer cultures at 37° C. in a humidified 5% CO2 atmosphere. Cells were passaged once a week using a trypsin/EDTA solution at a split ratio of 1:40. All media and supplements were obtained from Life Technologies. Cells were free of mycoplasma contamination as determined using the Gen-Probe Mycoplasma Tissue Culture kit (supplier: BioMerieux).
Cells were seeded in NUNC™ 96-well culture plates (Supplier: Life Technologies) and allowed to adhere to the plastic overnight. Densities used for plating were 1500 cells per well in a total volume of 200 μl medium. After cell adhesion to the plates, medium was changed and drugs and/or solvents were added to a final volume of 200 μl. Following four days of incubation, medium was replaced by 200 μl fresh medium and cell density and viability was assessed using an MTT-based assay. To each well, 25 μl MTT solution was added and the cells were further incubated for 2 hours at 37° C. The medium was then carefully aspirated and the blue MTT-formazan product was solubilized by addition of 25 μl glycine buffer followed by 100 μl of DMSO. […] Within an experiment, the results for each experimental condition are the mean of 3 replicate wells. For initial screening purposes, compounds were tested at a single fixed concentration of 10^−6 M. For active compounds, the experiments were repeated to establish full concentration-response curves. For each experiment, controls (containing no drug) and a blank incubation (containing no cells or drugs) were run in parallel. The blank value was subtracted from all control and sample values. For each sample, the mean value for cell growth (in absorbance units) was expressed as a percentage of the mean value for cell growth of the control. […] Herein the effects of test compounds are expressed as pIC50 (the negative log value of the IC50-value)(see Table F-3).

[3] = Solubility/stability (chemiluminescent nitrogen detector); type: physicochemical; conditions: water
Text: The solubility of a compound measures the ability of a compound to stay in solution. The solubility of a compound at different pH's can be measured with the use of a chemiluminescent nitrogen detector (see example C.3).
The solubility of a compound, at different pH's, can be measured with the use of a chemiluminescent nitrogen detector.

[4] = not given; remark: listed apart in the source
[5] = Metabolic stability with rat hepatocytes cell culture; type: in vitro ADME; conditions: rat hepatocyte cell cultures, 5 μM
Text: Metabolism of drugs means that a lipid-soluble xenobiotic or endobiotic compound is enzymatically transformed into (a) polar, water-soluble, and excretable metabolite(s). The major organ for drug metabolism is the liver. […] However, some metabolites may have enhanced activity or toxic effects. Thus drug metabolism may include both “detoxication” and “toxication” processes. One of the major enzyme systems that determine the organism's capability of dealing with drugs and chemicals is represented by the cytochrome P450 monooxygenases, which are NADPH dependent enzymes. Metabolic stability of compounds can be determined in vitro with the use of subcellular human tissue (see example C.5.a.). Here metabolic stability of the compounds is expressed as % of drug metabolised after 15 minutes incubation of these compounds with microsomes. Quantitation of the compounds was determined by LC-MS analysis. Metabolic stability of compounds can also be determined by calculating the half live of compounds in rat hepatocyte cells (see example C.5.b.). […]
Samples were prepared for LC-MS by addition of two volumes of DMSO. […] Of the resulting supernatant 50 μl was analysed by LC-MS. […]
Total injection volume of samples was 50 μL. […] The mass spectrometer was operated in positive ion mode in SIM adjusted to the mass of […] with a scan width of 1 Da for quantification purposes. […]

Compound | Enzyme activity pIC50 [1] | IC50 [2] [nM] | melting point [°C] | also measured
O=C(NO)c1cnc(N2CCOC(CNC(/C=C/c3ccccc3)CO)C2)nc1 (stereo not shown) [Compound 6] | 8.1 | 79.4 | 111 | –
CC(/C=C/c1ccccc1)NCC1CCN(c2ncc(C(=O)NO)cn2)CC1 (stereo not shown) [Compound 3] | 8.3 | 50.1 | 155 | solubility [3]: > 1000 µg/mL
COc1cc(N)c(Cl)cc1C(=O)NC1CCN(CCCOc2ccc(F)cc2)CC1OC (stereo not shown) [Cisapride] | – | – | – | % metabolism ([4]; human, 15 min, 5 μM): 45%
CC(=O)N(CC1CCN(c2ncc(C(=O)NO)cn2)CC1)C(C)/C=C/c1ccccc1 (stereo not shown) [Compound 4] | 8.7 | 158 | 100 | solubility [3]: > 100 µg/mL
O=C(NO)c1cnc(N2CCC(CNC(/C=C/c3ccccc3)CO)CC2)nc1 (stereo not shown) (hydrate or solvate) [Compound 1] | – | – | 196 | –
O=C(NO)c1cnc(N2CCC(NC(/C=C/c3ccccc3)CO)CC2)nc1 (stereo not shown) (hydrate or solvate) [Compound 2] | – | – | 109 | –
Nc1ccccc1NC(=O)c1cnc(N2CCC(CNC(/C=C/c3ccccc3)CO)CC2)nc1 (stereo not shown) [Compound 5] | 6.0 | 3160 | 178 | –
Nc1ccccc1NC(=O)c1cnc(N2CCOC(CNC(/C=C/c3ccccc3)CO)C2)nc1 (stereo not shown) [Compound 7] | 6.0 | 1260 | 95 | –
O=C(NO)c1cnc(N2CCN(S(=O)(=O)c3ccc4ccccc4c3)CC2)nc1 [Compound R306465, reference compound] | – | – | – | in vitro half-live [5]: 8 min
O=C(NO)c1cnc(N2CCC(NC(/C=C/c3ccccc3)CO)CC2)nc1 (stereo not shown) [Compound 2] | 8.0 | 158 | – | solubility [3]: > 500 µg/mL
CCCO [propanol] | – | – | – | % metabolism ([4]; 15 min incubation with active microsomes, compound 5 μM): 25%
CC(/C=C/c1ccccc1)N(CC1CCN(c2ncc(C(=O)NO)cn2)CC1)S(C)(=O)=O (stereo not shown) [Compound 8] | 9.5 | 200 | 110 | –
